Experimental data as given in patent US10294211B2, “Process for isolating and purifying ambrox” (Givaudan SA, priority 2015, dated 2019).

Experiments:
[1] = Sensory analysis: odour threshold
Excerpt: (§1) Purpose: to carry out a sensory analysis of (−)-Ambrox and the compounds (II), (III) and (IV) formed in the crude material and in the crystallised material.

[2] = Sensory analysis: GC-detection threshold and odour description; details: for GC-detection threshold / odour description: sensory analysis; for odour description: in words
Excerpt: as §1

Compound: CC1(C)CCC[C@]2(C)[C@H]3CCO[C@]3(C)CC[C@@H]12 [(−)-Ambrox]
- Odour Threshold ([1]; sensory analysis): 0.2 ng/L

Compound: C/C1=C/CCO[C@@]2(C)CCCC(C)(C)[C@@H]2CC1 [Compound (II)]
- detection threshold ([1]; as stated in the description): > 500 ng/L
- GC-detection threshold [2]: > 500 ng
- odour description [2]: “odorless”
- odour description ([2]; listed as II): weaker odour
- odour description ([2]; listed as compound of formula (II)): practically odourless

Compound: CC1(C)CCC[C@@]2(C)[C@H]1CC[C@@]1(C)OCC[C@@H]21 [Compound (III)]
- odor weaker than (−)-Ambrox ([2]; compared with (−)-Ambrox): about 10 fold
- GC-detection threshold [2]: circa 2 ng
- odour description ([2]; listed as Compound III): essentially odorless
- odour description ([2]; listed as III): weaker odour
- GC-threshold relative to (−)-Ambrox ([2]; times higher than (−)-Ambrox): about 10 ×

Compound: CC1(C)CCC[C@@]2(C)[C@H]1CC[C@]1(C)OCC[C@@H]21 [Compound (IV)]
- GC-detection threshold [2]: 5 to 10 ng
- odour description [2]: weak, IsoE, woody
- odour description ([2]; listed as IV): weaker odour
